# Laboratory results: US20170190705A1, “Compositions and Methods for Inhibiting BMP” (THE BRIGHAM AND WOMAN'S HOSPITAL, INC., priority 2014, published 2017)
# Experiments:
# Format in all cases: biochemical
# AURORA-A = target: T1, AURORA-A (Homo sapiens, UniProt O14965); experiment: Kinome profiling AURORA-A; conditions: read-out: Inhibitory activity AURORA-A; for inhibition at 0.1 µM: 100 nM
# T1 sequence (O14965 1-403): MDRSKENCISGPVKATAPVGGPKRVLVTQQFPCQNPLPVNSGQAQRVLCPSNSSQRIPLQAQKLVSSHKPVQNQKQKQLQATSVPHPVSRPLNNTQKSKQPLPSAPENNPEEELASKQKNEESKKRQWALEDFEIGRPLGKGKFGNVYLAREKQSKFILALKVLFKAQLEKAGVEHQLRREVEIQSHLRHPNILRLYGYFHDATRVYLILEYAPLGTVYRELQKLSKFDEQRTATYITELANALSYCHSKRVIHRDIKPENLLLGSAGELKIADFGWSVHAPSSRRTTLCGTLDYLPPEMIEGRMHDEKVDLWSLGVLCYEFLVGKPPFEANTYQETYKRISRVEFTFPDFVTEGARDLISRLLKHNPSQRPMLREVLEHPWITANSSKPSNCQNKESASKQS
# Description: (§1) . The kinome-wide selectivity was determined following the methods previously reported by Mohedas et al., ACS Chem Biol 2013, 8, 1291-1302 and Sanvitale et al., PLoS One 2013, 8, e62721.
# FLT-3 = target: T2, FLT-3 (Homo sapiens, UniProt P36888); experiment: Kinome profiling FLT-3; conditions: read-out: Inhibitory activity FLT-3; for inhibition at 0.1 µM: 100 nM
# T2 sequence (P36888 27-993): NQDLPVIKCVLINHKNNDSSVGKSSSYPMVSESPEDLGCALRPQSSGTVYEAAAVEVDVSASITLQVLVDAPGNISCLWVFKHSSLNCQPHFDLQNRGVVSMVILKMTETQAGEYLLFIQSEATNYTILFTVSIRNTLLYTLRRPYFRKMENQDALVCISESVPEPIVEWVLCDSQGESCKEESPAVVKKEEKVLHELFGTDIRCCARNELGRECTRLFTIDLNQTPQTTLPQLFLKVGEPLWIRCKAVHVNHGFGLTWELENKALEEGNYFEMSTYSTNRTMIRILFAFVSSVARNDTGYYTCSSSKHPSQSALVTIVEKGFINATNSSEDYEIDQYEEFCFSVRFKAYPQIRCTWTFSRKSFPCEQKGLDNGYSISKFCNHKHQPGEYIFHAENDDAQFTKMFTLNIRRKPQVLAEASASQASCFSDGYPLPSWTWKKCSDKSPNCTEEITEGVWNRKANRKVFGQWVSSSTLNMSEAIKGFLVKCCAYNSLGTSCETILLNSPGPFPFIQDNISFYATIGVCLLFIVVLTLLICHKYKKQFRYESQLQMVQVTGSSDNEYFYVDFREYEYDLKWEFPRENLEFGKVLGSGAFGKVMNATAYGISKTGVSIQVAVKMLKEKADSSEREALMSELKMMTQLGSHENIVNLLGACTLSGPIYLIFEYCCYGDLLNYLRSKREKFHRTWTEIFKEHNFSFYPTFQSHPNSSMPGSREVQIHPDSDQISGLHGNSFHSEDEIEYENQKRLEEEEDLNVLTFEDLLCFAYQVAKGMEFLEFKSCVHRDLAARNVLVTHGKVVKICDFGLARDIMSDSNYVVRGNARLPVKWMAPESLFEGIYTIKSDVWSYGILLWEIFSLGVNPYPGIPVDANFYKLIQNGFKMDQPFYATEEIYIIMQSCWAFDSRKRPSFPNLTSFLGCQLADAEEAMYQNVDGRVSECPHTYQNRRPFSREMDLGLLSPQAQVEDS
# Description: as §1
# PAK5 = PAK5 (Homo sapiens, UniProt Q9P286); experiment: Kinome profiling PAK5; conditions: read-out: Inhibitory activity PAK5; for inhibition at 0.1 µM: 100 nM
# Description: as §1
# PRKG1 = target: T3, PRKG1 (Homo sapiens, UniProt Q13976); experiment: Kinome profiling PRKG1; conditions: read-out: Inhibitory activity PRKG1; for inhibition at 0.1 µM: 100 nM
# T3 sequence (Q13976 1-671): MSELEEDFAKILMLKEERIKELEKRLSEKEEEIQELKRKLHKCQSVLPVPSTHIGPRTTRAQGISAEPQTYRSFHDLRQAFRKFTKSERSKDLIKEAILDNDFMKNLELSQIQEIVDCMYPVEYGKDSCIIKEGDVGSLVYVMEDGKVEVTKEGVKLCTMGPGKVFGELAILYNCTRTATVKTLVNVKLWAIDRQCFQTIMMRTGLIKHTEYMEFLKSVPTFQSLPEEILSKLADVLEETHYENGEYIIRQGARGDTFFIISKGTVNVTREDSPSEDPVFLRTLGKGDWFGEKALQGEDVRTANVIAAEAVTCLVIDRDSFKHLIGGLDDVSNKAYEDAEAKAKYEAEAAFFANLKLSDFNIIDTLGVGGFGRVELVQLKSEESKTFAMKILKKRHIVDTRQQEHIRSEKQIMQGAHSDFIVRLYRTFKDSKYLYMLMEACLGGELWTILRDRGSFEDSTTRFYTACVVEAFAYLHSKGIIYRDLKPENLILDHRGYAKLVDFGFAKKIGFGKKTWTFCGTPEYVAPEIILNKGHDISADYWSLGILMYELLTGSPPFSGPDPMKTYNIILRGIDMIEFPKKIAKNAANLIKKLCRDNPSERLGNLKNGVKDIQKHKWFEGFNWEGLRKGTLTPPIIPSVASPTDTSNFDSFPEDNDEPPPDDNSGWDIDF
# Description: as §1
# TEC = target: T4, TEC (Homo sapiens, UniProt P42680); experiment: Kinome profiling TEC; conditions: read-out: Inhibitory activity TEC; for inhibition at 0.1 µM: 100 nM
# T4 sequence (P42680 1-631): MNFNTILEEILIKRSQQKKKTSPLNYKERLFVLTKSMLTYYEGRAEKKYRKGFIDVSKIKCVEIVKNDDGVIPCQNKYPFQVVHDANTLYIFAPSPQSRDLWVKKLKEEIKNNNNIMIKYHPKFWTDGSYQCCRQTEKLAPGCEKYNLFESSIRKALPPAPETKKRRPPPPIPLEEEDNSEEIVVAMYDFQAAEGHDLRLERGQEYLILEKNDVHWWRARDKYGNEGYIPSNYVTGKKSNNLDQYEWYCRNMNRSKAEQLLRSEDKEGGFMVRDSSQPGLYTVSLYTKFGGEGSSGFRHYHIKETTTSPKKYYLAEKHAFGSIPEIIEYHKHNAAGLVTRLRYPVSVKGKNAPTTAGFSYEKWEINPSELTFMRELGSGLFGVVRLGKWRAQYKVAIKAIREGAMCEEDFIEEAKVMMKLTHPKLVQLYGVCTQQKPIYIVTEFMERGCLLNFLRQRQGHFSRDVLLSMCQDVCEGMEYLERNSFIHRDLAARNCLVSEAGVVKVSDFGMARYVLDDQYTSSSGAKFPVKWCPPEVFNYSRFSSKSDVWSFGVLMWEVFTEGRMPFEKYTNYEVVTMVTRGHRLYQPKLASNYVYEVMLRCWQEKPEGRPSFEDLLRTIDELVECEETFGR
# Description: as §1
# Chain of PAK5 (Q9P286 whole entry): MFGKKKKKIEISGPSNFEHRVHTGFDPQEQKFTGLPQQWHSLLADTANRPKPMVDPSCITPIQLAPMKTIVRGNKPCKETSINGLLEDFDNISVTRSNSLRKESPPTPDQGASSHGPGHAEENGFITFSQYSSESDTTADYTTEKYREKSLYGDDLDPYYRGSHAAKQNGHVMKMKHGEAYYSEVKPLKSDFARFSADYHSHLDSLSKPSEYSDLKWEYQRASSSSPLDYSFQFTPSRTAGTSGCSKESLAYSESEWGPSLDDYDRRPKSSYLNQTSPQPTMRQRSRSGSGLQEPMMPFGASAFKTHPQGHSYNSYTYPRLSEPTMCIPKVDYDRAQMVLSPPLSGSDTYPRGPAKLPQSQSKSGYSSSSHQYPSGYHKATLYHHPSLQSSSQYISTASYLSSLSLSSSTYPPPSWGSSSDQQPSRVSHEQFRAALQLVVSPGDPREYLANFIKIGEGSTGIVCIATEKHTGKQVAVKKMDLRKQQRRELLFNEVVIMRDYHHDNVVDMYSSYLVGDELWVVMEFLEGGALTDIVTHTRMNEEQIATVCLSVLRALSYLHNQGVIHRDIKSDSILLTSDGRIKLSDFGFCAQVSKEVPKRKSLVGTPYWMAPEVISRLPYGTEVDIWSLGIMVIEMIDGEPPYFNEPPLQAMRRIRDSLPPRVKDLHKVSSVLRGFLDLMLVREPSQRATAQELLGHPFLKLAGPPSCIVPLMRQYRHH
Compound,inhibition at 0.1 µM (AURORA-A),inhibition at 1 µM (AURORA-A),inhibition at 0.1 µM (FLT-3),inhibition at 1 µM (FLT-3),inhibition at 0.1 µM (PAK5),inhibition at 1 µM (PAK5),inhibition at 0.1 µM (PRKG1),inhibition at 1 µM (PRKG1),inhibition at 0.1 µM (TEC),inhibition at 1 µM (TEC)
"COc1cc(-c2cc(-c3ccc(N4CCNCC4)cc3)cnc2C)cc(OC)c1OC [Compound 10, 1-(4-(6-methyl-5-(3,4,5-trimethoxyphenyl)pyridin-3-yl)phenyl)piperazine]",2%,3%,3%,18%,1%,1%,3%,2%,0%,0%
"COc1cc(-c2cc(-c3ccc(N4CCNCC4)cc3)cnc2N)cc(OC)c1OC [Compound 15, 5-(4-(piperazin-1-yl)phenyl)-3-(3,4,5-trimethoxyphenyl)pyridin-2-amine]",2%,3%,1%,5%,9%,6%,0%,4%,5%,24%
